From US20230218563A1, “METHODS FOR TREATING OR PREVENTING CHRONIC KIDNEY DISEASE” (Arthrosi Therapeutics, Inc., priority 2020, published 2023)
“And” between values parts separate entries of the source, which are not always exact repeats. Identical values can stand only once. Like-named read-outs stand apart in the source and are kept apart here.

Test: Phase 1 single dose study, plasma pharmacokinetics in healthy adult males
Type: in vivo, human
Conditions: for AUC(0-t) / AUC(0-inf) / Tmax / Vd/F / half-life / Cmax: male, human, plasma, po; for Vd/F: read-out: Vz/F
Protocol: The dose groups included Cohort 1 (15 mg or placebo, fasted, oral suspension), Cohort 2 (50 mg or placebo, fasted, suspension), Cohort 3 (100 mg or placebo, fasted, oral suspension), Cohort 4 (150 mg or placebo, fasted, oral suspension), Cohort 6 (50 mg or placebo, fed, oral suspension), and Cohort 7 (50 mg or placebo, fasted, oral capsule). […] An additional 8 subjects received placebo.
The results are consistent with observation in animal testing and higher exposure of S-enantiomer was attributed to the conversion of the R-enantiomer in vivo.

[1] = 15 mg single oral, fasted, suspension (C1)
[2] = 50 mg single oral, fasted, IR capsule (C7)
[3] = 50 mg single oral, fasted, suspension (C2)
[4] = 50 mg single oral, fed vs fasted
[5] = 50 mg single oral, fed, suspension (C6)
[6] = 100 mg single oral, fasted, suspension (C3)
[7] = 150 mg single oral, fasted, suspension (C4)
[8] = dose proportionality, 15 to 150 mg fasted

[2H]c1c([2H])c([2H])c2c(C(=O)c3cc(Br)c(O)c(Br)c3)c(C(C)O)oc2c1[2H] (racemic) [Compound 1, (3,5-dibromo-4-hydroxyphenyl)(2-(1-hydroxyethyl)benzofuran-3-yl-4,5,6,7-d4)methanone]
CL/F [1]: 1.02 L/h
Cmax (total) [1]: 1.06 µg/mL
CL/F [2]: 1.01 L/h
Cmax (total) [2]: 3.97 µg/mL
CL/F [3]: 0.906 L/h
Cmax (total) [3]: 3.33 µg/mL
change of Cmax in the fed state [4]: ~33%
decrease of AUC with food [4]: approximately 13%
CL/F [5]: 1.03 L/h
Cmax (total) [5]: 2.21 µg/mL
Tmax (median) [5]: 8 h and 8.00 h
CL/F [6]: 1.04 L/h
Cmax (total) [6]: 5.51 µg/mL
CL/F [7]: 0.944 L/h
Cmax (total) [7]: 8.33 µg/mL
Power model intercept, AUCinf (μg · h/mL) [8]: 0.944
Power model intercept, Cmax (μg/mL) [8]: 0.0966
AUC(0-t) (15 mg, 15 mg single oral, fasted, suspension (C1), read-out: AUC0-24 (total)): 12.1 µg·h/mL
AUC(0-inf) (15 mg, 15 mg single oral, fasted, suspension (C1), read-out: AUCinf (total)): 15 µg·h/mL
Tmax (15 mg, 15 mg single oral, fasted, suspension (C1), read-out: Tmax (median)): 3.5 h
Vd/F (15 mg, 15 mg single oral, fasted, suspension (C1)): 14.1 L
half-life (15 mg, 15 mg single oral, fasted, suspension (C1), read-out: t1/2 (converted)): 9.69 h
AUC(0-t) (50 mg, 50 mg single oral, fasted, IR capsule (C7), read-out: AUC0-24 (total)): 41.9 µg·h/mL
AUC(0-inf) (50 mg, 50 mg single oral, fasted, IR capsule (C7), read-out: AUCinf (total)): 51.3 µg·h/mL
Tmax (50 mg, 50 mg single oral, fasted, IR capsule (C7), read-out: Tmax (median)): 1.75 h
Vd/F (50 mg, 50 mg single oral, fasted, IR capsule (C7)): 14.9 L
half-life (50 mg, 50 mg single oral, fasted, IR capsule (C7), read-out: t1/2 (converted)): 10.5 h
AUC(0-t) (50 mg, 50 mg single oral, fasted, suspension (C2), read-out: AUC0-24 (total)): 42.6 µg·h/mL
AUC(0-inf) (50 mg, 50 mg single oral, fasted, suspension (C2), read-out: AUCinf (total)): 59.6 µg·h/mL
Tmax (50 mg, 50 mg single oral, fasted, suspension (C2), read-out: Tmax (median)): 3 h
Vd/F (50 mg, 50 mg single oral, fasted, suspension (C2)): 16 L
half-life (50 mg, 50 mg single oral, fasted, suspension (C2), read-out: t1/2 (converted)): 12.5 h
AUC(0-inf) (50 mg, 50 mg single oral, fasted, read-out: Geometric Least Squares Mean AUCinf, Fasted): 57.4 µg·h/mL
AUC(0-t) (50 mg, 50 mg single oral, fasted, read-out: Geometric Least Squares Mean AUClast, Fasted): 57.1 µg·h/mL
Cmax (50 mg, 50 mg single oral, fasted, read-out: Geometric Least Squares Mean Cmax, Fasted): 3.25 µg/mL
Cmax (50 mg, 50 mg single oral, fed (high-fat, high-calorie meal), read-out: Geometric Least Squares Mean Cmax, Fed): 2.17 µg/mL
AUC(0-t) (50 mg, 50 mg single oral, fed, suspension (C6), read-out: AUC0-24 (total)): 34 µg·h/mL
AUC(0-inf) (50 mg, 50 mg single oral, fed, suspension (C6), read-out: AUCinf (total)): 51.2 µg·h/mL
Tmax (50 mg, 50 mg single oral, fed, suspension (C6), read-out: Tmax (median)): 8 h
Vd/F (50 mg, 50 mg single oral, fed, suspension (C6)): 16.3 L
half-life (50 mg, 50 mg single oral, fed, suspension (C6), read-out: t1/2 (converted)): 11.7 h
AUC(0-inf) (50 mg, 50 mg single oral, fed, read-out: Geometric Least Squares Mean AUCinf, Fed): 49.9 µg·h/mL
AUC(0-t) (50 mg, 50 mg single oral, fed, read-out: Geometric Least Squares Mean AUClast, Fed): 49.6 µg·h/mL
AUC(0-t) (100 mg, 100 mg single oral, fasted, suspension (C3), read-out: AUC0-24 (total)): 71 µg·h/mL
AUC(0-inf) (100 mg, 100 mg single oral, fasted, suspension (C3), read-out: AUCinf (total)): 99.7 µg·h/mL
Tmax (100 mg, 100 mg single oral, fasted, suspension (C3), read-out: Tmax (median)): 4 h
Vd/F (100 mg, 100 mg single oral, fasted, suspension (C3)): 18.6 L
half-life (100 mg, 100 mg single oral, fasted, suspension (C3), read-out: t1/2 (converted)): 12.5 h
AUC(0-t) (150 mg, 150 mg single oral, fasted, suspension (C4), read-out: AUC0-24 (total)): 114 µg·h/mL
AUC(0-inf) (150 mg, 150 mg single oral, fasted, suspension (C4), read-out: AUCinf (total)): 173 µg·h/mL
Tmax (150 mg, 150 mg single oral, fasted, suspension (C4), read-out: Tmax (median)): 4 h
Vd/F (150 mg, 150 mg single oral, fasted, suspension (C4)): 15.5 L
half-life (150 mg, 150 mg single oral, fasted, suspension (C4), read-out: t1/2 (converted)): 12 h
Tmax (single oral dose, fasted conditions, read-out: median Tmax, range over doses): 3 to 5 h
half-life (single oral doses 15 to 150 mg, read-out: average terminal half-life): 10 to 13 h
total plasma clearance (single oral doses 15 to 150 mg): approximately 1.0 L/hr
volume of distribution (single oral doses 15 to 150 mg): 14 to 18 L
